Consider three compounds from patent publication US6362207B1, “Methods of treating viral infections with benzimidazoles” (priority 1995, dated 2002).

The subject of one data set is Pancreas (Mia-PaCa). In words: Pancreas (Mia-PaCa) model, tumor weight. It counts as in vivo, mice. The conditions noted are these: 80 mg/kg i.p. on days 1,4,7 and 10; c1 = day 40. The procedure: The dose response effect of carbendazim in mice infected with various cancer types was studied in standard screening tests.
The results of these studies conducted to study the dosage response of carbendazim on various cancer types are summarized below. […] Efficacy of carbendazim has been shown in the following cancers:
In the Pancreas (Mia-PaCa) model, carbendazim at 3000 and 4000 (mg/kg, twice weekly) is as good as or better than gemcitabine. At 2000 mg/kg the carbendazim was not as effective after 21 days. Gemcitabine was given on days 1,4,7 and 10 i.p.; the carbendazim was given p.o. twice weekly.

The test system of another data set is MCF-7L breast line. The data set can be described thus: MCF-7L breast line study versus Navelbine and Taxol, tumor weight. The conditions noted are these: 16 mg/kg qd×5 i.p., carbendazim treatment begun on day 130; c1-c4 = day 236, 239, 245, 249. The class given is in vivo, mice.
Data set [1] is classed as in vivo. The conditions noted are these: SK-MES, positive control 20 mg/kg, 5 doses. The text has this:
Additional in vivo cancer studies are presented in a tabular form below. The data is presented in the following format—dose regimen in parenthesis, dosage in mg/kg: tumor growth suppression (tg supp.), toxic deaths/number of test subjects (deaths), % weight change (wt).

The test system of a further data set is HT29 colon tumor cells. The data set can be described thus: MTT cell viability test, colon tumor cells. The conditions noted are these: HT-29, control 0.398. It counts as cell-based, human. In general terms: Formazan colour is commonly taken as a measure of viable cells.
The next data set concerns B-16 mouse melanoma. The conditions noted are these: mouse, in vivo. The procedure:
The data in Tables 1, 2 and 3 are reported in T/C which is interpreted using the following scale:
long term survivors for P388 is >30 days, for B16 it is >60 days. The NCI Measure of Success is T/C=125.
This study was performed in black mice injected i.p. with B-16 mouse melanoma which many researchers believe is the most predictive model for efficacy in humans. […] Death is the end point in this model.

In another data set the test system is P388. In words: P-388 model for leukemia, T/C. It counts as in vivo, mice. The conditions noted are these: mouse, in vivo. From the text: In the P-388 model for leukemia there was a dose responsive effect and the results were good.
The NCI Measure of Success is T/C=125.

In another data set the test system is HIV. The data set can be described thus: microbe, parasite or virus in culture. It counts as cell-based. The conditions noted are these: Human immunodeficiency virus 1; 60 μg/ml; read-out: inhibition of viral replication.
Data set [2] has as its system breast tumor cells (MCF-7). The data set can be described thus: Related study of tumor cell killing (optical density). The class given is cell-based. The conditions noted are these: control 0.245. From the text: In a related study using lung tumor cells (A-549) breast tumor cells (MCF-7) and colon tumor cells (HT-29), thiabeadazole effectively killed these cells.

Data set [3] relates to influenza. In words: In vivo model for influenza. Also on record: species or system mice. As for the experimental part: The positive control was amantadine (75 mg/kg) with 100% of the mice surviving for 21 days. 2-(Methoxycarbonylamino)benzimidazole was not active in the same test.
The test system of data set [4] is HIV, pretreated chronically infected cells. It counts as cell-based. The conditions noted are these: irrespective of the culture conditions.
Data set [5] relates to Human Tumor Colony Forming Units. The data set can be described thus: In Vitro Human Tumor Colony Forming Units Test.
For data set [6], the system named is herpes. The data set can be described thus: In vitro herpes model. The class given is cell-based.
The test system of data set [7] is influenza. The data set can be described thus: In vitro influenza model. The class given is cell-based.
Data set [8] concerns HIV, chronically infected cells. The data set can be described thus: Reappearance of virus production from chronically infected cells previously treated. The class given is cell-based.
The subject of a further data set is A549 lung tumor cells. In words: MTT cell viability test, lung tumor cells. It counts as cell-based, human. The conditions noted are these: A-549, control 0.600.
For data set [9], the system named is HIV-1 in U1 cells (promonocytic, from U937). In words: Additional chronic HIV studies, monocytes. It counts as cell-based. The conditions noted are these: 60 μg/ml. The procedure: (§1) Chronic HIV-1 infected cells U1 were derived from an acute HIV-1 infection of the promonocytic cell line, U937. The chronic HIV-1 infected cells, ACH-2 were derived from an acute HIV-1 infection of the T cell line, A3.01.
(§2) These cells were cultured in medium and the phorbol ester, PMA. PMA causes the cells (both U1 and ACH-2) to be activated and not divide but it also causes the U-1 cells to differentiate. […] Cell viability was measured when these cell lines were treated with the test compound.
(§3) Both cell lines constituitively produce a small amount of HIV-1. ACH-2 cell lines tend to produce more HIV-1 than U1 cells as shown by p24 ELISA. When either cell line is cultured in the presence of PMA there is an increase in the quantity of HIV-1 produced as measured by the p24 antigen ELISA.
(§4) In addition, the number of […] positive HIV mRNA expressing cells per microscopic field is measured. Comparisons can be made from these numbers since the same number of cells were adhered to the glass slides for each drug concentration 10×10^6 cells/ml).
(§5) These cells were treated with test samples. […] The positive control was interferon which suppressed HIV monocytes replication by 80%.

Data set [10] deals with HIV-1 (CEM-SK1, U937-SK1, H9-SK1, U1 and ACH2 cells). The data set can be described thus: HIV Virus Replication Study in chronically infected cells. The class given is cell-based. As for the experimental part:
Thiabendazole was tested in chronically infected HIV virus. These cell populations contain integrated copies of the HIV genome and constituitively produce HIV at relatively high levels (CEM-SK1, U937-SK1 and H9-SK1 from Frederick Research Center, Maryland) or are latently infected and only produce virus after stimulation with phorbol esters, tumor necrosis factor or IL6 (U1 and ACH2).
Toxicity to the chronically infected cells was similar to that observed with the uninfected cells.
After 28 days of treatment on chronically infected cells, the toxicity of the compound to the target cells appeared similar in both uninfected and chronically infected cells.
This reduction of virus production occurs at concentrations which are nontoxic to the host cell and which have no effect on the synthesis of cellular DNA, RNA and protein.

Data set [11] has as its system herpes. In words: In vivo herpes screening test. More on the design: species or system mice. The procedure:
The positive control was acyclovir at 75 mg/kg dose; 60% of the mice survived with a mean death date of 17.2 days.

Data set [12] relates to HIV-1 in ACH-2 cells (T cell line A3.01). In words: Additional chronic HIV studies, T cells. The conditions noted are these: 60 μg/ml. The class given is cell-based. The procedure:
as §1, §2, §3, §4, §5

Data set [13] relates to MX1 breast cancer tumors implanted subcutaneously. In words: Tumor growth reduction in mice models (Table 5), breast. The class given is in vivo. The conditions noted are these: implanted subcutaneously under the mice skin.
Data set [14] deals with HIV, chronically infected cells. The data set can be described thus: Virus Resistance Studies. It counts as cell-based. The conditions noted are these: cultures treated at 40 and 80 μg/ml.

In the data set with Pancreas (Mia-PaCa), `Nc1ccn([C@@H]2O[C@H](CO)[C@@H](O)C2(F)F)c(=O)n1` [Gemcitabine, reference compound] returned a tumor weight of 503.7 mg.
In the data set with MCF-7L breast line, `CC(=O)O[C@H]1C(=O)[C@@]2(C)[C@H]([C@H](OC(=O)c3ccccc3)[C@]3(O)C[C@H](OC(=O)[C@H](O)[C@@H](NC(=O)c4ccccc4)c4ccccc4)C(C)=C1C3(C)C)[C@]1(OC(C)=O)CO[C@@H]1C[C@@H]2O` [Taxol] yielded a tumor weight of 0 mg. In [1], the “% weight change (wt)” value is “+1%”, the “toxic deaths/number of test subjects (deaths)” value is recorded as 0/10 and the “tumor growth suppression (tg supp.)” value is on record as 75%.
In general, inhibition refers to the drop in the measured response relative to a control, in per cent. For the compound `c1ccc2[nH]c(-c3cscn3)nc2c1` [thiabendazole, 2-(4-thiazolyl)-1-H-benzimidazole], the “Optical Density” value in the data set on HT29 colon tumor cells (0.87 ppm) is reported as 0.852; with HT29 colon tumor cells (3.46 ppm), 0.713; in the data set with HT29 colon tumor cells (17.3 ppm), 0.204; in the data set with HT29 colon tumor cells (35 ppm), 0.011; with HT29 colon tumor cells (173 ppm), 0.005; in data set [2] (0.87 ppm), 0.507. The “Optical Density” value in [2] (3.46 ppm) is 0.466; in [2] (17.3 ppm) it was 0.258; in [2] (35 ppm), 0.025; in [2] (173 ppm) it was 0.007; in the data set on A549 lung tumor cells (0.87 ppm), 1.32; with A549 lung tumor cells (3.46 ppm), 1.12. Further, the “Optical Density” value turned out to be 0.851 in the data set on A549 lung tumor cells (17.3 ppm), 0.411 in the data set on A549 lung tumor cells (35 ppm) and 0.007 with A549 lung tumor cells (173 ppm). In addition, the “activity against B16” value with B-16 mouse melanoma was “no activity”. Also, the “activity against P388” value in the data set with P388 was “no activity”. The inhibition at 60 µg/mL in the data set on HIV stood at 98%. Also, the mean death date in the data set on influenza [3] (100 mg/kg) was determined as 8.7 days; in the data set with influenza [3] (200 mg/kg) it was 8 days; with herpes [11] (100 mg/kg), 9.2; with herpes [11] (200 mg/kg), 10.4. Besides, the mice survived was 62% in the data set on influenza [3] (100 mg/kg), 67% in the data set with influenza [3] (200 mg/kg), 50% in the data set with herpes [11] (100 mg/kg) and 10% in the data set with herpes [11] (200 mg/kg). In addition, the “virus production from pretreated cell populations, Groups 1-3” value in data set [4] was “identical”. Also, the “positive results / tumors tested” value in [5] (1 Hour Exposure, 0.5 μg/ml) is 0/3; in data set [5] (1 Hour Exposure, 5.0 μg/ml) it was 0/3; in [5] (1 Hour Exposure, 50.0 μg/ml) it was 0/3; in data set [5] (Continuous Exposure, 0.5 μg/ml), 1/10; in [5] (Continuous Exposure, 5.0 μg/ml) it was 2/10; in data set [5] (Continuous Exposure, 50.0 μg/ml), 7/10. For the same compound, the activity entry with herpes [6] and in the data set with influenza [7] was “no activity” throughout. Besides, the “day by which virus production resumed after washing free of compound” value in data set [8] (40 μg/ml) is ≤ 12 days. Moreover, the “day at which virus production was observed after washing free of compound” value in data set [8] (highest concentrations) is ~70 days. Further, the “time until virus production resumed after washing free of compound” value in data set [8] (lower concentrations (20 μg/ml and 4 μg/ml)) was ≤ 4 days. Besides, in data set [9], the “suppression of replication in the HIV monocytes” value is 74%. Besides, the “concentration at which stable reductions in virus production were observed” value in data set [10] (after 28 days of treatment) was “greater than 10 μg/ml”. Besides, in data set [10] (chronically infected cells), the “concentrations that inhibited virus production” value is 1 to 10 µg/mL. In addition, the “increase of T-cell HIV replication” value in data set [12] is reported as 26%. In addition, the “activity against MX1 breast cancer tumors” value in [13] is on record as “no activity”. In [14], the virus production entry is on record as “totally suppressed”.
